# Measured values published in US5378706A, “Fused-thiazole derivatives active on the cholinergic system, and pharmaceutical compositions containing same” (Sanofi, priority 1987, dated 1995).
# How the values were obtained:
# [1] = system: M1 central muscarinic cholinergic receptors; test: Antagonism of rotations induced by intrastriatal injection of pirenzepine in mice; assay type: in vivo, mice (Swiss, CD 1); conditions: for Pirenzepine antagonism ED50 i.p.: 15 minutes before intrastriatal pirenzepine 1 μg; for Pirenzepine antagonism ED50 p.o.: 30 minutes before intrastriatal pirenzepine 1 μg
# Experimental: Pirenzepine (PZ) is a specific antagonist of the M1 central muscarinic cholinergic receptors. The intrastriatal injection of PZ into mice induces rotatory behavoir. The antagonism of this behavoir by the products according to the invention was studied.
# The products according to the invention are administered either intraperitoneally (i.p.) or orally (p.o.) after solubilization in distilled water or suspension in a 5% solution of gum arabic. The control animals receive the pure solvent under the same conditions.
# The animals used are female mice (Swiss, CD 1, Charles River, France) with a body weight of between 25 and 30 grams.
# The pirenzepine is dissolved in a phosphate buffer and the pH of the solution is 6.
# The test products or their solvents are administered in a volume of 0.4 ml per 20 g of body weight, either by i.p. injection or orally via an esophageal tube.
# The number of contralateral rotations (rotations in the opposite direction to the side injected) was counted for three 2-minute periods after injection of the pirenzepine: 2nd to 4th, 8th to 10th and 13th to 15th minutes. Each treatment consists of 3 to 4 doses and 10 animals per dose. The total number of rotations and the percentage antagonism with respect to the control group are calculated for each treatment.
# [2] = Acute toxicity, 24 hours mortality after i.p. administration to mice; conditions: mouse, in vivo, ip, female mice, 20 g
# Experimental: Finally, the acute toxicity was determined for various products according to the invention. The products were administered intraperitoneally in increasing doses to groups of 10 female mice (Swiss, CD 1, Charles River, France) with a body weight of 20 g.
# [3] = molecular target: T1, M1 -type muscarinic cholinergic receptor (Rattus norvegicus, UniProt P08482); test: biochemical; assay type: binding; conditions: for IC50: rat hippocampus homogenate, 3H-PZ 1 nM, 2 hours at 4° C., pH 7.40, read-out: IC50 3H-PZ (M1); for ratio R of the IC50 values for the M1 and M2 receptors: selectivity, values correspond to IC50 M2 / IC50 M1
# T1 sequence (P08482 1-460): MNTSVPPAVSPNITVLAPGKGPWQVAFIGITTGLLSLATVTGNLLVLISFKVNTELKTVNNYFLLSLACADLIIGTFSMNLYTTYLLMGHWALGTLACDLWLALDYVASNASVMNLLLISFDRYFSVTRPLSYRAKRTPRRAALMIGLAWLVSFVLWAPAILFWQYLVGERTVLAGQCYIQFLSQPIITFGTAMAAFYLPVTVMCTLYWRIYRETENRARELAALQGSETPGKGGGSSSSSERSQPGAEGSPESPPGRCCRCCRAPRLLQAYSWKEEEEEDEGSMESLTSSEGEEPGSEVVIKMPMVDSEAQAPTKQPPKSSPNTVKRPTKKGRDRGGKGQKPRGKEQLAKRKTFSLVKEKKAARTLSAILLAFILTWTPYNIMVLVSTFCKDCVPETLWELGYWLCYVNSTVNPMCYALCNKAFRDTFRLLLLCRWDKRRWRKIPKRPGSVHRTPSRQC
# Experimental: The interaction of the molecules with the M1 -type muscarinic receptors was studied by in vitro measurement, on a rat hippocampus homogenate, of the displacement of tritiated pirenzepine from its specific binding sites. Aliquots (10 μl) of a 5% (w/v) rat hippocampus homogenate in an Na2 HPO4 buffer (50 mM, pH 7.40) are incubated for 2 hours at 4° C. in the presence of ^3 H-PZ (76 Ci/mmol; final concentration 1 nM) and increasing concentrations of the test product. The final volume is 2 ml. The reaction is stopped by centrifugation for 10 minutes at 50,000×g. After decantation and washing of the residues, the bound radioactivity is counted by liquid scintillation. The non-specific binding is determined in the presence of 10 μM atropine sulfate.
# [4] = molecular target: T2, M2 -type muscarinic cholinergic receptor (Cavia porcellus, UniProt H0VRN8); test: Affinity for the M2-type muscarinic cholinergic receptor, displacement of tritiated N-methylscopolamine (3H-NMS) on smooth guinea-pig ileum muscle homogenate; assay type: binding; conditions: guinea-pig ileum smooth muscle homogenate, 3H-NMS 0.3 nM, 20 minutes at 30° C., pH 7.5; read-out: IC50 3H-NMS (M2)
# T2 construct: on a smooth guinea-pig ileum muscle homogenate; from tissue; host or cells: guinea-pig ileum smooth muscle homogenate
# T2 sequence (H0VRN8 1-466): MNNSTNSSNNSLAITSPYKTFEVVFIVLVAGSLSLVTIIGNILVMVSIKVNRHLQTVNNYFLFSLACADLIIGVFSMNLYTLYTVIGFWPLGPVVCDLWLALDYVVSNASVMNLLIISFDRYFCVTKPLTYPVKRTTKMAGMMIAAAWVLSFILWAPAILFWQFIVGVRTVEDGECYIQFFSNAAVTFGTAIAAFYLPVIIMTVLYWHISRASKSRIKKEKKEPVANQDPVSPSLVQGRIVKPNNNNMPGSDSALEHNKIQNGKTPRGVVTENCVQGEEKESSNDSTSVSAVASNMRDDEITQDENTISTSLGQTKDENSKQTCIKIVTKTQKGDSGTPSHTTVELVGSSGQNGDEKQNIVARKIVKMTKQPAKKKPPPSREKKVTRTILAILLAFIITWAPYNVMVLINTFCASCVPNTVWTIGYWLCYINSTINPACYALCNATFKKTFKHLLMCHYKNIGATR
# Experimental: The M1 -type receptors are concentrated in certain regions of the brain, such as the hippocampus, the cerebral cortex and the striatum, and also in the sympathetic ganglia. These binding sites can be selectively labeled with tritiated pirenzepine (^3 H-PZ). The M2 -type receptors predominate in the heart and the ileum and can be labeled with tritiated N-methyl-scopolamine (^3 H-NMS). The selectivity of the products of the invention with respect to the M1 and M2 sites was determined by studying their in vitro interaction with ^3 H-PZ and ^3 H-NMS firmly bound with a high affinity to rat hippocampus membranes and smooth guinea-pig ileum muscle, respectively.
# The interaction with the M2 -type muscarinic receptors was studied by in vitro measurement, on a smooth guinea-pig ileum muscle homogenate, of the displacement of tritiated N-methylscopolamine from its specific binding sites. […] The final volume is 1 ml. The reaction is stopped by centrifugation for 5 minutes at 15,000×g. The non-specific binding is determined in the presence of 10 mM atropine sulfate.
# The IC50 for ^3 H-PZ displacement represents the affinity for the M1 receptor; the IC50 for ^3 H-NMS displacement represents the affinity for the M2 receptor.
IC50 [3] [µM],ratio R of the IC50 values for the M1 and M2 receptors [3],IC50 [4] [µM],Compound,Pirenzepine antagonism ED50 i.p. [1] [mg/kg],Pirenzepine antagonism ED50 p.o. [1] [mg/kg],LD50 at 24 h [2] [mg/kg]
0.6,43,26,CN(C)CCCNc1nc(-c2ccc(F)cc2F)cs1 [SR 44770 A],–,3,–
0.4,250,100,Cc1cc(C)c(-c2csc(NCc3cccnc3)n2)c(C)c1 [SR 44839 A],–,0.2,–
0.3,> 300,> 100,Cc1cc(C)c(-c2csc(NCCc3ccncc3)n2)c(C)c1 [SR 44856 A],–,3,–
3,11,34,CN1CCN(CCCNc2nc(-c3ccc(F)cc3)cs2)CC1 [SR 44862 A],–,3,–
0.4,100,40,Cc1cc(C)c(-c2csc(NCCCN3CCN(C)CC3)n2)c(C)c1 [SR 44915 A],–,3,–
0.9,31,28,Cc1cc(C)c(-c2csc(NCCCN3CCCC3)n2)c(C)c1 [SR 44964 A],–,3,–
1.2,50,60,CCN1CCCC(Nc2nc(-c3c(C)cc(C)cc3C)cs2)C1 (stereo not shown) [SR 44965 A],–,3,–
2.6,11,30,Cc1ccccc1-c1csc(NCCCN(C)C)n1 [SR 45001 A],–,3,–
0.3,13,4,CN(C)CCCNc1nc(-c2ccccc2)c(-c2ccccc2)s1 [SR 45015 A],–,0.70,–
0.1,55,5.5,CN(C)CCCNc1nc(Cc2ccccc2)c(-c2ccccc2)s1 [SR 45016 A],–,2,–
1.6,50,80,CNCCCNc1nc(-c2c(C)cc(C)cc2C)cs1 [SR 45030 A],–,1,–

# The next lines start with the compound.
Compound,IC50 [3] [µM],ratio R of the IC50 values for the M1 and M2 receptors [3],IC50 [4] [µM],Pirenzepine antagonism ED50 i.p. [1] [mg/kg],Pirenzepine antagonism ED50 p.o. [1] [mg/kg],LD50 at 24 h [2] [mg/kg]
c1ccc(-c2csc(NCCN3CCOCC3)n2)cc1 [SR 44244 A],–,–,–,8,20,250
"Cl.Cl.c1ccc2c(c1)CCc1sc(NCCN3CCOCC3)nc1-2 [SR 44273 A, 2-(2-Morpholinoethylamino)-4,5-dihydronaphtho[1,2-d]thiazole dihydrochloride]",–,–,–,–,–,> 100
c1ccc(-c2csc(NCCCN3CCOCC3)n2)cc1 [SR 44284 A],8,5,40,8,–,450
CCN(CC)CCNc1nc(-c2ccccc2)cs1 [SR 44286 A],6,16,100,3,10,200
CN(C)CCCNc1nc(-c2ccccc2)cs1 [SR 44345 A],1,70,70,0.5,1,200
CCN(CC)CCCNc1nc(-c2c(C)cc(C)cc2C)cs1 [SR 44347 A],0.35,37,13,0.03,0.20,60
CCN(CC)CCNc1nc(-c2c(C)cc(C)cc2C)cs1 [SR 44372 A],0.12,41,5,1,3,75
CCN(CC)CCCNc1nc(C)c(-c2ccccc2)s1 [SR 44373 A],0.7,21,15,0.3,1,75
CCN(CC)CCCNc1nc(-c2ccccc2)cs1 [SR 44374 A],0.4,20,8,3,–,150
